Test results published in patent publication US20110143948A1, “MOLECULAR SIGNATURES AND BIOMARKERS ASSOCIATED WITH MELANOMA AND METHODS OF USE THEREOF” (priority 2008, published 2011).

Test system: ncRNAs (SEQ ID NO 28-89)
Test: ncRNA arrays of melanocytes, keratinocytes, normal skin, melanoma cell lines and patient samples
Design: species or system human
Conditions: for ncRNA array expression, patient 2: melanoma patient 2 sample compared to normal skin; for ncRNA array expression, patient 3: melanoma patient 3 sample compared to normal skin; for ncRNA array expression, patient 4: melanoma patient 4 sample compared to normal skin; for ncRNA array expression, patient 5: melanoma patient 5 sample compared to normal skin; for ncRNA array expression, patient 6: melanoma patient 6 sample compared to normal skin; for ncRNA array expression, patient 7: melanoma patient 7 sample compared to normal skin; for ncRNA array expression, patient 8: melanoma patient 8 sample compared to normal skin; for ncRNA array expression, patient 9: melanoma patient 9 sample compared to normal skin; for ncRNA array expression, patient 10: melanoma patient 10 sample compared to normal skin; for ncRNA array expression, patient 19: melanoma patient 19 sample compared to normal skin; for ncRNA array expression, patient 20: melanoma patient 20 sample compared to normal skin; for ncRNA array expression, patient 21: melanoma patient 21 sample compared to normal skin; for ncRNA array expression, patient 22: melanoma patient 22 sample compared to normal skin; for ncRNA array expression, patient 23: melanoma patient 23 sample compared to normal skin; for ncRNA array expression, patient 24: melanoma patient 24 sample compared to normal skin; for ncRNA array expression, patient 25: melanoma patient 25 sample compared to normal skin; for ncRNA array expression, patient 26: melanoma patient 26 sample compared to normal skin; for ncRNA array expression, patient 27: melanoma patient 27 sample compared to normal skin; for ncRNA array expression, patient 28: melanoma patient 28 sample compared to normal skin; for ncRNA array expression, patient 29: melanoma patient 29 sample compared to normal skin; for ncRNA array expression, patient 30: melanoma patient 30 sample compared to normal skin
Outline: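 Differential ncRNA expression was defined against melanocytes or normal skin after subtracting keratinocyte-specific signals, with confirmation by qRT-PCR and Northern blot. Samples were melanoma cell lines, patient tumours, melanocytes, keratinocytes and normal skin, hybridised to a >10,000-probe (>200 nt) ncRNA array that also carries RefSeq mRNA probes.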

| Substance | ncRNA array expression, patient 2 | ncRNA array expression, patient 3 | ncRNA array expression, patient 4 | ncRNA array expression, patient 5 | ncRNA array expression, patient 6 | ncRNA array expression, patient 7 | ncRNA array expression, patient 8 | ncRNA array expression, patient 9 | ncRNA array expression, patient 10 | ncRNA array expression, patient 19 | ncRNA array expression, patient 20 | ncRNA array expression, patient 21 | ncRNA array expression, patient 22 | ncRNA array expression, patient 23 | ncRNA array expression, patient 24 | ncRNA array expression, patient 25 | ncRNA array expression, patient 26 | ncRNA array expression, patient 27 | ncRNA array expression, patient 28 | ncRNA array expression, patient 29 | further results |
| --- | --- | --- | --- | --- | --- | --- | --- | --- | --- | --- | --- | --- | --- | --- | --- | --- | --- | --- | --- | --- | --- |
| SEQ ID NO 45 (ATTTAGAGAACATTTAAATCTGTAAGGAAGAAAATAATAACGACTCACAATTACATCATT; listed as DNA, chemistry not given here; listed as Homo sapiens) | −1.688 | −1.56 | −1.5912 | −1.519 | −0.7528 | −0.8782 | −2.042 | −1.8261 | 1.065 | −0.8583 | −1.797 | −1.759 | −1.25 | 0.2281 | −1.588 | −2.096 | −2.174 | −1.86 | −2.069 | −1.422 | ncRNA array expression, patient 30: 0.8792 |
| SEQ ID NO 42 (TAGACATAGGTTAGAGGGGGAACAGTGCTTAAAATTCCATGGAACTAAGATTTTTTTTAT; listed as DNA, chemistry not given here; listed as Homo sapiens) | −1.5031 | −1.941 | −1.837 | −1.916 | −1.445 | −1.996 | −2.073 | −1.562 | −0.8067 | −2.231 | −1.775 | −1.59 | −1.26 | −0.1085 | −1.66 | −1.5976 | −1.684 | −1.038 | −1.339 | −0.5812 | ncRNA array expression, patient 30: 1.333 |
| SEQ ID NO 67 (TTCCCTATTCCATCCTTTGATGGGTGGCCTGTTACACGTTTGGAAATAAAAACAAGTGGG; listed as DNA, chemistry not given here; listed as Homo sapiens) | 2.053 | 1.721 | 0.6532 | 4.146 | 1.481 | 2.486 | 1.375 | 1.111 | 3.887 | 0.7069 | 1.071 | 3.856 | 1.186 | 2.369 | 1.045 | 0.3622 | 0.8179 | 1.392 | 6.659 | 2.096 | ncRNA array expression, patient 30: −1.191 |
| SEQ ID NO 69 (AGAGTTCGCACTGGGAAGAGTTAAAAAATAAACATTTACAAGGACGAGGAAAGCGGCCCC; listed as DNA, chemistry not given here; listed as Homo sapiens) | −1.697 | −1.8068 | −1.369 | −1.797 | −0.5526 | −1.8141 | −1.777 | −1.618 | −1.696 | −0.9749 | −1.422 | −1.5966 | −0.8782 | −0.2153 | −1.796 | −1.178 | −1.015 | −0.7594 | −1.693 | −1.645 | ncRNA array expression, patient 30: 0.8457 |
| SEQ ID NO 59 (TGTGCAGCAGTATCAAAGGTCCTTAAATTCTCAACAATGAAGGAAAAACAAAAACCCATT; listed as DNA, chemistry not given here; listed as Homo sapiens) | −0.9339 | −1.02 | −1.168 | −1.255 | −1.212 | −0.9325 | −0.9937 | −1.258 | −0.9688 | −1.202 | −1.14 | −1.263 | −0.5383 | −1.165 | −1.154 | −0.9916 | −0.8776 | −1.161 | −1.232 | −1.077 | ncRNA array expression, patient 30: −1.04 |
| SEQ ID NO 79 (GTGTGTACTGATGTCAAAGACCAAATGGATGCCCCTGTGGCCAACAGTACCTTGTTAAAC; listed as DNA, chemistry not given here; listed as Homo sapiens) | 0.5938 | 1.324 | 1.428 | 1.43 | 1.201 | 1.729 | 1.728 | 1.129 | 0.1808 | 1.52 | 1.494 | 1.271 | 1.165 | 1.445 | 2.943 | 1.206 | 0.7039 | 0.9237 | 0.5852 | 0.6174 | ncRNA array expression, patient 30: 0.5148 |
| SEQ ID NO 38 (GTAAACAAGGTCTCACAAAAACAGCTGACCACACCATAAAATCACTGAGACCGAGCCTGC; listed as DNA, chemistry not given here; listed as Homo sapiens) | −1.1813 | −1.02 | −0.9275 | −1.288 | −1.615 | −1.64 | −1.244 | −1.183 | −0.784 | −0.7729 | −0.9285 | −1.068 | −0.7593 | −1.569 | −1.078 | −1.365 | −1.368 | −1.317 | −1.181 | −1.249 | ncRNA array expression, patient 30: 0.333 |
| SEQ ID NO 51 (ATGTATTTTAGGTAATAAGATTTTTATCAATTGTGTCTTTTTCTTTCTTTGCTTTCTATA; listed as DNA, chemistry not given here; listed as Homo sapiens) | 0.8922 | 2.683 | 2.264 | 1.042 | 1.115 | 1.14 | 2.048 | 0.7789 | 0.8572 | 0.7228 | 1.113 | 1.298 | 0.5543 | 0.1918 | 1.761 | 2.552 | 1.145 | 1.166 | 0.879 | 0.7193 | ncRNA array expression, patient 30: −0.4325 |
